# According to paper doi:10.1101/2024.08.19.608619, “Discovery of potent SARS-CoV-2 nsp3 macrodomain inhibitors uncovers lack of translation to cellular antiviral response” (bioRxiv, 2024):
# Where two headings read alike, the source gives them in different places.
# Legend:
# [1] = target: T1, SARS-CoV-2 nsp3-mac1 (Severe acute respiratory syndrome coronavirus 2, UniProt P0DTD1); test: biochemical; parameters: SARS-CoV-2 nsp3 macrodomain TR-FRET single point, per cent inhibition, n=2
# [2] = target: T1, SARS-CoV-2 nsp3-mac1; test: biochemical; type: biochemical; details: SARS-CoV-2 nsp3 macrodomain TR-FRET single point
# [3] = read-out: perc_inhibition_mean, batch_name=ASAP-0000260-001
# [4] = read-out: perc_inhibition_mean, batch_name=ASAP-0000393-001
# [5] = read-out: perc_inhibition_mean, batch_name=ASAP-0000430-001
# [6] = read-out: perc_inhibition_mean, batch_name=ASAP-0000324-001
# [7] = read-out: perc_inhibition_mean, batch_name=ASAP-0000255-001
# [8] = read-out: perc_inhibition_mean, batch_name=ASAP-0000338-001
structure (smiles),measurement,setting,value
c1ccc([C@@H](CNc2ncnc3n[nH]cc23)N2CCOCC2)cc1 [ASAP-0000001],inhibition at 50 µM,"[1]; read-out: perc_inhibition_mean, batch_name=ASAP-0000001-001",-0.781%
same,perc_inhibition_mean,[2]; concentration 50.0 uM,-0.781%
Oc1cc(CNc2ncnc3[nH]cnc23)ccn1 [ASAP-0000260],inhibition at 50 µM,[1]; [3],-0.821%
same,inhibition at 100 µM,[1]; [3],-3.73%
same,perc_inhibition_mean,"[2]; concentration 50.0 uM, n=2",-0.821%
same,perc_inhibition_mean,"[2]; concentration 100.0 uM, n=2",-3.73%
Cc1[nH]cnc1C(=O)N1CCC(c2ccn3ncc(C(=O)N4CCCCC4)c3c2)CC1 [ASAP-0000393],inhibition at 49.75 µM,[1]; [4],16.4%
same,inhibition at 99.5 µM,[1]; [4],32%
same,perc_inhibition_mean,[2]; concentration 49.75 uM,16.419%
same,perc_inhibition_mean,[2]; concentration 99.5 uM,32.041%
COCc1nc(CNc2c(C#N)c(C)nn2C)cs1 [ASAP-0000089],inhibition at 50 µM,"[1]; read-out: perc_inhibition_mean, batch_name=ASAP-0000089-001",0.8%
same,perc_inhibition_mean,[2]; concentration 50.0 uM,0.8%
O=C(c1nnn[nH]1)N1CCC(c2ccn3ncc(C(=O)N4CCCCC4)c3c2)CC1 [ASAP-0000430],inhibition at 49.75 µM,[1]; [5],55.2%
same,inhibition at 99.5 µM,[1]; [5],69%
same,perc_inhibition_mean,[2]; concentration 49.75 uM,55.152%
same,perc_inhibition_mean,[2]; concentration 99.5 uM,69.012%
NS(=O)(=O)c1ccccc1CNc1ncnc2[nH]ccc12 [ASAP-0000130],inhibition at 50 µM,"[1]; read-out: perc_inhibition_mean, batch_name=ASAP-0000130-001",3.66%
same,perc_inhibition_mean,[2]; concentration 50.0 uM,3.656%
Cn1nc(NC(=O)c2cc(-c3ccco3)[nH]n2)c2nccnc21 [ASAP-0000099],inhibition at 50 µM,"[1]; read-out: perc_inhibition_mean, batch_name=ASAP-0000099-001",-5.4%
same,perc_inhibition_mean,[2]; concentration 50.0 uM,-5.398%
O=C(Nc1cnc2[nH]ncc2c1)c1cc(C2CC2)[nH]c1C1CC1 [ASAP-0000079],inhibition at 50 µM,"[1]; read-out: perc_inhibition_mean, batch_name=ASAP-0000079-001",-23.6%
same,perc_inhibition_mean,[2]; concentration 50.0 uM,-23.613%
CSc1ccccc1NC(=O)c1ncnc2[nH]ccc12 [ASAP-0000190],inhibition at 50 µM,"[1]; read-out: perc_inhibition_mean, batch_name=ASAP-0000190-001",-5.8%
same,perc_inhibition_mean,[2]; concentration 50.0 uM,-5.805%
CO[C@@H]1CCCN(C(=O)c2cnn3ccc(C4CCN(C(=O)c5ccccc5)CC4)cc23)C1 [ASAP-0000324],inhibition at 49.75 µM,[1]; [6],22.6%
same,inhibition at 99.5 µM,[1]; [6],39.8%
same,perc_inhibition_mean,"[2]; concentration 49.75 uM, n=2",22.606%
same,perc_inhibition_mean,"[2]; concentration 99.5 uM, n=2",39.842%
O=C(NCc1cccc(F)n1)c1cnc2nc[nH]c(=O)c2c1 [ASAP-0000255],inhibition at 50 µM,[1]; [7],-14.8%
same,inhibition at 100 µM,[1]; [7],-14.6%
same,perc_inhibition_mean,[2]; concentration 100.0 uM,-14.602%
same,perc_inhibition_mean,"[2]; concentration 50.0 uM, n=2",-14.823%
Cc1nn(Cc2ccccc2)c(C)c1CNc1ncnc2[nH]ncc12 [ASAP-0000084],inhibition at 50 µM,"[1]; read-out: perc_inhibition_mean, batch_name=ASAP-0000084-001",-1.75%
same,perc_inhibition_mean,[2]; concentration 50.0 uM,-1.755%
CCCNC(=O)[C@H]1CCCN(c2ncnc3[nH]ccc23)C1 [ASAP-0000053],inhibition at 50 µM,"[1]; read-out: perc_inhibition_mean, batch_name=ASAP-0000053-001",-4.36%
same,perc_inhibition_mean,[2]; concentration 50.0 uM,-4.36%
CC[C@@H]1C[C@@H](C(=O)Nc2ncnc3[nH]c(C)c(C)c23)CCO1 [ASAP-0000201],inhibition at 50 µM,"[1]; read-out: perc_inhibition_mean, batch_name=ASAP-0000201-001",12.1%
same,perc_inhibition_mean,[2]; concentration 50.0 uM,12.08%
Cc1cc(NCc2ncccc2O)ncn1 [ASAP-0000124],inhibition at 50 µM,"[1]; read-out: perc_inhibition_mean, batch_name=ASAP-0000124-001",-3.33%
same,perc_inhibition_mean,[2]; concentration 50.0 uM,-3.335%
C=CCn1c(Sc2ncnc3[nH]ccc23)nc2sccc2c1=O [ASAP-0000005],inhibition at 50 µM,"[1]; read-out: perc_inhibition_mean, batch_name=ASAP-0000005-001",6.3%
same,perc_inhibition_mean,[2]; concentration 50.0 uM,6.305%
CNC[C@@H]1CCCN1C(=O)c1cnn2ccc(C3CCN(C(=O)c4ccccc4)CC3)cc12 [ASAP-0000338],inhibition at 49.75 µM,[1]; [8],-1.47%
same,inhibition at 99.5 µM,[1]; [8],-2.2%
same,perc_inhibition_mean,"[2]; concentration 49.75 uM, n=2",-1.474%
same,perc_inhibition_mean,"[2]; concentration 99.5 uM, n=2",-2.203%
CC(C)(C[C@@H]1CCCN(c2ncnc3[nH]ccc23)C1)C(N)=O [ASAP-0000077],inhibition at 50 µM,"[1]; read-out: perc_inhibition_mean, batch_name=ASAP-0000077-001",-1.59%
same,perc_inhibition_mean,[2]; concentration 50.0 uM,-1.586%
O=C(Nc1cnc2[nH]ncc2c1)C1(c2ccccc2)CC1 [ASAP-0000133],inhibition at 50 µM,"[1]; read-out: perc_inhibition_mean, batch_name=ASAP-0000133-001",3.21%
same,perc_inhibition_mean,[2]; concentration 50.0 uM,3.207%
C=CCn1c(Cc2ccccc2)nnc1Sc1ncnc2[nH]ccc12 [ASAP-0000048],inhibition at 50 µM,"[1]; read-out: perc_inhibition_mean, batch_name=ASAP-0000048-001",-7.71%
same,perc_inhibition_mean,[2]; concentration 50.0 uM,-7.711%
